{"source": "patent US9751909B2", "about": "“Synthesis and uses of nucleic acid compounds with conformationally restricted monomers” (Marina Biotech, Inc., priority 2011, dated 2017)", "key": {"microRNA-122": {"test_system": "microRNA-122", "test": "De-repression of downstream mRNAs of microRNA-122 in mouse liver by CRN-containing antimir", "type": "in vivo, mouse (BALB/c)", "excerpt": "The CRN-containing antimir CRN-Antimir-122-8a was synthesized by the methods of this invention. MicroRNA-122 is an miRNA shown to be liver-specific and involved in lipid metabolism and possibly hepatitis C virus replication. MicroRNA-122 regulates various downstream mRNAs. CRN-Antimir-122-8a is 16-mer oligonucleotide complementary to the 5′ end of microRNA-122 that can silence microRNA-122 and de-repress its downstream targets.\nLiver and spleen were harvested.\nThe end points determined were expression of downstream genes AldoA (Aldolase A), P4H4 (Prolyl 4-hydroxylase gene), and SLC7A1 (Solute carrier family 7). Negative control was a mismatched Antimir-122 sequence."}, "[1]": {"test": "Tolerability in mice: body weight, clinical signs, spleen weight, serum chemistry", "details": "BALB/c mice"}, "[2]": {"details": "8-week old BALB/c mice, 10 mg/kg intravenously Q1d×3, necropsy 24 h after last dose"}}, "data": [{"substance": "crnm5CsdCsdAscrnTscrnTsdGscrnTscrnm5CsdAscrnm5CsdAsdCsdTscrnm5Cscrnm5CsdA (antisense CCATTGTCACACTCCA; CRN nucleotides, phosphorothioate linkages; (1)..(16) Phosphorothioate linkage between nucleotides; modified_base (1)..(1) Conformationally restricted 5′-methyl nucleomonomer; modified_base (2)..(3) deoxy-nucleotide; modified_base (4)..(5) Conformationally restricted nucleomonomer; modified_base (6)..(6) deoxy-nucleotide; modified_base (7)..(7) Conformationally restricted nucleomonomer; modified_base (8)..(8) Conformationally restricted 5′-) [CRN-Antimir-122-8a]", "values": [{"measurement": "de-repression in liver AldoA mRNA relative to buffer control", "setting": "microRNA-122; [2]", "result": "Up to 2.5 fold"}, {"measurement": "de-repression in liver P4H4 mRNA relative to buffer control", "setting": "microRNA-122; [2]", "result": "Up to 1.5 fold"}, {"measurement": "de-repression in liver SLC7A1 mRNA relative to buffer control", "setting": "microRNA-122; [2]", "result": "Up to 1.3 fold"}, {"measurement": "de-repression of downstream genes ALDOA, SLC7A, P4H4 in the mouse model", "setting": "microRNA-122; mouse model, result in words", "result": "demonstrated de-repression"}, {"measurement": "alterations in liver and kidney enzymes", "setting": "[1]; 10 mg/kg intravenously Q1d×3", "result": "No alterations"}, {"measurement": "body weight loss after dosing", "setting": "[1]; 10 mg/kg intravenously Q1d×3", "result": "No body weight loss"}, {"measurement": "other serum chemistry parameters", "setting": "[1]; 10 mg/kg intravenously Q1d×3", "result": "within expected normal levels"}, {"measurement": "tolerability", "setting": "[1]; 10 mg/kg intravenously Q1d×3", "result": "well tolerated"}, {"measurement": "spleen weights relative to buffer control", "setting": "[1]; 10 mg/kg intravenously Q1d×3, necropsy 24 h after last dose", "result": "unaltered"}]}]}
